In patent US4377578A, “Piperazine derivatives” (priority 1981, dated 1983):

Tests used:
[1] = system: anaphylactic shock in guinea pigs sensitized to ovalbumin; assay: Anaphylaxis in guinea pigs: protection against death (survival) after ovalbumin challenge; assay type: in vivo, guinea pig; details: Table I-b; estimated ED50, oral, protection against death after i.v. 0.6 mg ovalbumin
Experimental: The anti-anaphylactic and antihistaminic effects of the subject compounds (I) and salts thereof are studied "in vivo" in guinea pigs.
(§1) Guinea pigs, weighing between 400 and 500 g, are sensitized to ovalbumin by subplantar (s.p.) injection of 0.05 ml of antiserum in the left hind paw. The animals are then starved and orally treated, 24 hours after the sensitization, with saline (=control animals) or a particular dose of the compound under investigation.
The histamine injection (at a dose of 50 μg) was given s.p. in the right hind paw 2 hours after the oral pretreatment with the compound. The diameters of both hind paws are first measured before the histamine injection is given and again 10 minutes thereafter. The animals are challenged intravenously with 0.6 mg of ovalbumin 30 minutes after the histamine injection. All control animals develop tyical primary anaphylactic shock symptoms (coughing, difficult breathing, convulsions) and 85% of these control animals die within 15 minutes after the ovalbumin injection. Protection against death is used as the criterion for possible drug effects and the estimated ED50 -value, i.e. the oral dose whereby the protection is observed in 50% of the guinea pigs, is listed in the tables below.

[2] = system: histamine paw oedema in guinea pigs; assay: Histamine paw oedema in guinea pigs; assay type: in vivo, guinea pig; details: Table I-b, 2 hours before s.p. histamine 50 μg, oedema below 10 units at 10 minutes
Experimental: as §1, with “investigation. The histamine injection (at a dose of 50 μg) was given s.p. in the right hind paw 2 hours after the oral pretreatment with the compound.” for “investigation.”

[3] = system: histamine-induced spasms of guinea-pig ileum strips; assay: Anti-histamine activity in vitro (guinea-pig ileum); assay type: cell-based; details: Table I-b; histamine 0.5 mg/liter, 5 minutes incubation, significant inhibition (50%) of contraction
Experimental: The histamine-(0.5 mg/liter) induced spasms are recorded Kymographically with an isotonic lever giving a 5-fold magnification.

1-[3-{4-[(3-chlorophenyl)phenylmethyl]-1-piperazinyl}propyl]-1H-benzimidazole trihydrochloride.hydrate.hemi-2-propanolate [I-b: M=H, R1=H, (CH2)4, R6=3-Cl, R7=H]
Anaphylaxis in guinea pigs oral effective dose in mg/kg: Survival [1]: 1.25 mg/kg
Anaphylaxis in guinea pigs oral effective dose in mg/kg: Histamine oedema [2]: 1.25 mg/kg
Histamine in "vitro" (ileum) effective conc. [3]: 0.01 mg/L
